Assay results as given in patent USRE38117E1, “Trioxane dimer compound having antiproliferative and antitumor activities” (Hauser, Inc., priority 1995, dated 2003).

Assays:
DU-145 = test: NCI 60 cell line screen (SRB), Prostate Cancer; type: cell-based; settings: DU-145 (Prostate Cancer)
[1] = Stability at room temperature; type: physicochemical; settings: crystalline solid
60 cell line panel = settings: cell line panels consisting of 60 lines; cited from earlier work
[2] = test system: Ehrlich ascites tumor (EAT) cells; settings: MTT assay, Woerdenbag et al. 1993; cited from earlier work
P. berghei = settings: P. berghei-infected mice; Klayman 1985; cited from earlier work
P388 leukemia = settings: NCI Report on NSC 369397; cited from earlier work
[3] = test system: Plasmodium vivax and Plasmodium falciparum; settings: 2099 cases of malaria, different dosage forms of QHS; 1979 study; cited from earlier work
P. falciparum = settings: two Hanian strains; Ye et al. 1983; cited from earlier work
[4] = cited from earlier work

SMILES	Log10GI50 (DU-145) [M]	Log10LC50 (DU-145) [M]	Log10TGI (DU-145) [M]	stability [1]	anticancer activity (60 cell line panel)	ID50 / IC50 (drug concentration causing 50% growth inhibition of the tumor cells) [2] [µM]	SD90 (parasitemia 90 percent suppressed) (P. berghei) [mg/kg]	activity against P388 leukemia (P388 leukemia)	clinical outcome [3]	potency in vitro compared with chloroquine (P. falciparum)	solubility in water [4]
COC1OC2(C)CCC3CCCC(CCOC(=O)c4cccc(C(=O)OCCC5CCCC6CCC7(C)OOC56C(OC)O7)c4)C31OO2 (centres unmarked) [Compound 10, Trioxane Bis-ester Dimer]	−4.53	>−4.30	>−4.30	stable for prolonged periods at room temperature	–	–	–	–	–	–	–
CC(=O)O[C@H]1C(=O)[C@@]2(C)[C@H]([C@H](OC(=O)c3ccccc3)[C@]3(O)C[C@H](OC(=O)[C@H](O)[C@@H](NC(=O)c4ccccc4)c4ccccc4)C(C)=C1C3(C)C)[C@]1(OC(C)=O)CO[C@@H]1C[C@@H]2O [Paclitaxel, paclitaxel, reference compound]	−9.38	>−4.00	>−4.00	–	–	–	–	–	–	–	–
C[C@@H]1CC[C@H]2[C@@H](C)C(=O)O[C@@H]3O[C@@]4(C)CC[C@@H]1[C@]32OO4 [QHS, 3,6,9-trimethyl-9,10b-epidioxyperhydropyrano[4,3,2-jk]benzoxepin-2-one, reference compound]	–	–	–	–	very little anticancer activity	29.8	6.20	inactive	clinical cure of all patients	comparable to that of chloroquine	insolubility in water
